Reference: US6136825A, “Sulfonamide compounds having 5-HT receptor activity” (Knoll Aktiengesellschaft, priority 1996, dated 2000)
Structures can show the parent of a compound that is named as a salt.

Experiments:
5-HT1A = target: T1, 5-HT1A (Rattus norvegicus, UniProt P19327); assay: inhibition of tritiated ligand ([3H]8-OH-DPAT) binding to 5-HT1A receptors, rat hippocampal tissue; design: species or system male Charles River CD rats; details: for Ki: 25° C., 30 minutes, pH 7.7; for inhibition at 1 µM: at 10^-6 M, read-out: % displacement of specific binding, 5-HT1A
T1 construct: Hippocampal tissue from the brains of male Charles River CD rats; from tissue; host or cells: rat hippocampus (male Charles River CD rats), crude membrane pellet
T1 sequence (P19327 1-422): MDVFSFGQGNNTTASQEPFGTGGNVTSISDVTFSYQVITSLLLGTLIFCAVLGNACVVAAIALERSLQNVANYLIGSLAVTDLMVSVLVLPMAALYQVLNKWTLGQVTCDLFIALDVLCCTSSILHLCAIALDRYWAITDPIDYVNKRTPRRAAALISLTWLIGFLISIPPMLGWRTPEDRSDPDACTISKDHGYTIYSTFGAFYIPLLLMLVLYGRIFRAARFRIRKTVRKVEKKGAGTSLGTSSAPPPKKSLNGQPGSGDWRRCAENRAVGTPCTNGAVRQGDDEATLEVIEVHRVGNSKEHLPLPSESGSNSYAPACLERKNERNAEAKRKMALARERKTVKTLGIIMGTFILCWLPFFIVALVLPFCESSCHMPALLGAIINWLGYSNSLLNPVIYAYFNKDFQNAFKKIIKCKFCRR
Method: Hippocampal tissue from the brains of male Charles River CD rats weighing between 150-250 g were homogenised in ice-cold 50 mM Tris-HCl buffer (pH 7.7) when measured at 25° C., 1:40 w/v) and centrifuged at 30,000 g at 4° C. for 10 minutes. The pellet was rehomogenised in the same buffer, incubated at 37° C. for 10 minutes and centrifuged at 30,000 g at 4° C. for 10 minutes. The final pellet was resuspended in 50 mM Tris-HCl buffer (pH 7.7) containing 4 mM CaCl2, 0.1% L-ascorbic acid and 10 μM pargyline hydrochloride (equivalent to 6.25 mg wet weight of tissue/ml) and used immediately in the binding assay. Aliquots (400 μl; equivalent to 2.5 mg wet weight of tissue/tube) of this suspension were added to tubes containing the ligand (50 μl; 2 nM) and distilled water (50 μl; total binding) or 5-HT (50 μl; 10 μM; non-specific binding) or test compound (50 μl; at a single concentration of 10^-6 M or at 10 concentrations ranging from 10^-11 -10^-3 M). The ligand was [^3 H]8-hydroxy-2-(dipropylamino)tetralin ([^3 H]8-OH-DPAT) and the mixture was incubated at 25° C. for 30 minutes before the incubation was terminated by rapid filtration.
The filters were washed with ice-cold Tris-HCl buffer and dried. The filters were punched out into vials, scintillation fluid added and radioactivity determined by liquid scintillation counting. The percentage displacement of specific binding of the tritiated ligand was calculated for the single concentration (10^-6 M) of test compound. Displacement curves were then produced for those compounds which displaced ≥50% of specific binding of the tritiated ligand at 10^-6 M using a range of concentrations of the compound. The concentration which gave 50% inhibition of specific binding (IC50) was obtained from the curve. The inhibition coefficient Ki was then calculated using the formula [formula] in which [ligand] is the concentration of the tritiated ligand used and KD Is the equilibrium dissociation constant for the ligand.

[1] = target: T2, D2-like dopamine receptors (Rattus norvegicus, UniProt P61169); assay: inhibition of tritiated (S)-sulpiride binding to D2-like dopamine receptors, rat striatal tissue; design: species or system male Charles River CD rats; details: for Ki: 4° C., 40 minutes, pH 7.7
T2 construct: Striatal tissue from the brains of male Charles River CD rats; from tissue; host or cells: rat striatum (male Charles River CD rats), crude membrane pellet
T2 sequence (P61169 whole entry): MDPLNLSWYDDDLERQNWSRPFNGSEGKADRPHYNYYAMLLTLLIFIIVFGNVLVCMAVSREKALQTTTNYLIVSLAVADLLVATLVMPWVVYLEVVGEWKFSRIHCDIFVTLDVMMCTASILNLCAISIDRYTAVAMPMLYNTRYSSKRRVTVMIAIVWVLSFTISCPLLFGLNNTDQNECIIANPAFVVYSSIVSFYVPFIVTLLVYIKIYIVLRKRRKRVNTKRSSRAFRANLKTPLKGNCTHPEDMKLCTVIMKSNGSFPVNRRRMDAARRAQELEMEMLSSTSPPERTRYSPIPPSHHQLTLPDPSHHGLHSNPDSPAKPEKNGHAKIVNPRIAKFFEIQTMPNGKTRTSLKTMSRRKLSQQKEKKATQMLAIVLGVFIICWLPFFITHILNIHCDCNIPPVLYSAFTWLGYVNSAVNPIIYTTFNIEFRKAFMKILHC
Method: Striatal tissue from the brains of male Charles River CD rats weighing between 140-250 g were homogenised in ice-cold 50 mM Tris-HCl buffer (pH 7.7 when measured at 25° C.) and centrifuged at 40,000 g for 10 minutes. The pellet was resuspended in Tris salts buffer (50 mM Tris-HCl buffer containing 120 mM NaCl, 5 mM KCl, 2 mM CaCl2 and 1 mM MgCl2 with the addition of 6 mM ascorbic acid; pH 7.7 when measured at 25° C.), and again centrifuged at 40,000 g for 10 minutes. The final pellet was stored at -80° C. Before each test the pellet was resuspended in Tris salts buffer (equivalent to 2 mg wet weight of tissue/ml). Aliquots (720 μl; equivalent to 1.44 mg wet weight of tissue/tube) of this suspension were then added to tubes containing the ligand (40 μl; 1 nM) and Tris salts buffer (40 μl; total binding) or spiroperidol (40 μl; 10 nM; non-specific binding) or test compound (40 μl; at a single concentration of 10^-6 M or at 6 concentrations ranging from 10^-11 -10^-4 M). The ligand was tritiated (S)-sulpiride and the mixture was incubated at 4° C. for 40 minutes before the incubation was terminated by rapid filtration.
The filters were washed with ice-cold Tris-HCl buffer and dried. The filters were punched out in to vials, scintillation fluid added and were left for about 20 hours before being counted by scintillation spectrophotometry. The percentage displacement of specific binding of the tritiated ligand was calculated for the single concentration (10^-6 M) of test compound. Displacement curves were then produced over a range of concentrations for those compounds which displaced ≥50% of specific binding of the tritiated ligand at 10^-6 M. The concentration which gave a 50% inhibition of specific binding (IC50) was obtained from the curve. The inhibition coefficient Ki was then calculated using the formula [formula] in which [ligand] is the concentration of the tritiated ligand used and KD is the equilibrium dissociation constant for the ligand.

Row | Ki (5-HT1A) [nM] | Ki [1] [nM] | inhibition at 1 µM (5-HT1A) [%] | inhibition at 1 µM ([1]; at 10^-6 M, read-out: % displacement of specific binding, D2-like) [%] | SMILES
1 | 11.4 | 27.9 | – | – | O=S(=O)(c1ccccn1)N1CCC(CNC[C@H]2COc3ccc(Cl)cc3O2)CC1 [Example 2, (S)-(-)-4-[N-(7-chloro-1,4-benzodioxan-2-ylmethyl)aminomethyl]-1-(2-pyridinesulphonyl)piperidine 0.8 hydrate]
2 | 14 | 23 | – | – | CC(=O)Nc1ccc(S(=O)(=O)NCC2CCN(C[C@H]3COc4ccc(Br)cc4O3)CC2)cc1 [Example 44, (S)-(-)-4-Acetamido-N-{[1-(7-bromo-1,4-benzodioxan-2-ylmethyl}-4-piperidyl]methyl)benzenesulphonamide]
3 | – | 487 | 68 | – | O=S(=O)(NCC1CCN(C[C@H]2COc3ccc(Cl)cc3O2)CC1)c1cc(Br)ccc1Br [Example 36, (S)-2,5-Dibromo-N-{[1-(7-Chloro-1,4-benzodioxan-2-ylmethyl)-4-piperidyl]methyl}-benzenesulphonamide]
4 | 86.8 | 29.4 | – | – | O=S(=O)(NCC1CCN(C[C@H]2COc3ccc(Cl)cc3O2)CC1)c1ccccn1 [Example 1, (S)-(-)-N-{[1-(7-chloro-1,4-benzodioxan-2-ylmethyl)-4-piperidyl]methyl}pyridine-2-sulphonamide monohydrochloride 0.6 hydrate]
5 | – | 351 | 68 | – | COc1ccc(Cl)cc1S(=O)(=O)NCC1CCN(C[C@H]2COc3ccc(Cl)cc3O2)CC1 [Example 27, (S)-5-Chloro-N-{[1-(7-chloro-1,4-benzodioxan-2-ylmethyl)-4-piperidyl]methyl}-2-methoxybenzenesulphonamide]
6 | – | 227 | 90 | – | O=S(=O)(NCC1CCN(C[C@H]2COc3ccc(Cl)cc3O2)CC1)c1ccc(I)cc1 [Example 18, (S)-N-{[1-(7-Chloro-1,4-benzodioxan-2-ylmethyl)-4-piperidyl]methyl}-4-iodo-benzenesulphonamide]
7 | – | – | 93 | 106 | O=S(=O)(NCC1CCN(C[C@H]2COc3ccc(Cl)cc3O2)CC1)c1ccccc1Cl [Example 41, (S)-(-)-2-Chloro-N-{[1-(7-chloro-1,4-benzodioxan-2-ylmethyl)-4-piperidyl]methyl}benzenesutphonamide]
8 | – | 85 | 87 | – | O=[N+]([O-])c1ccccc1S(=O)(=O)NCC1CCN(C[C@H]2COc3ccc(Cl)cc3O2)CC1 [Example 37, (S)-N-{[1-(7-Chloro-1,4-benzodioxan-2-ylmethyl)-4-piperidyl]methyl}-2-nitro-benzenesulphonamide]
9 | – | 235 | 75 | – | O=S(=O)(NCC1CCN(C[C@H]2COc3ccc(Cl)cc3O2)CC1)c1cc2nnoc2c2ccccc12 [Example 20, (S)-N-{[1-(7-Chloro-1,4-benzodioxan-2-ylmethyl)-4-piperidyl]methyl}naphth [2,1-d][1,2,3]oxadiazole-5-sulphonamide]
